Measured values published in ChEMBL document CHEMBL4507259 (2021).

What was measured:
[1] = biological target: Mitogen-activated protein kinase kinase kinase 7 (Homo sapiens) (UniProt O43318); details: Compound concentration 1000.0 nM
[2] = tested on: Phosphatidylinositol 4,5-bisphosphate 3-kinase catalytic subunit alpha isoform (Homo sapiens), P42336 [Q546K]; details: Compound concentration 1000.0 nM
[3] = biological target: Serine/threonine-protein kinase LATS1 (Homo sapiens) (UniProt O95835); details: Compound concentration 1000.0 nM
[4] = biological target: T1, Muscarinic acetylcholine receptor M2 (Homo sapiens) (UniProt P08172); experiment: M2 (h) CEREP ligand profiling; details: filed as antagonist, Compound concentration 10.0 uM
T1 sequence (whole entry): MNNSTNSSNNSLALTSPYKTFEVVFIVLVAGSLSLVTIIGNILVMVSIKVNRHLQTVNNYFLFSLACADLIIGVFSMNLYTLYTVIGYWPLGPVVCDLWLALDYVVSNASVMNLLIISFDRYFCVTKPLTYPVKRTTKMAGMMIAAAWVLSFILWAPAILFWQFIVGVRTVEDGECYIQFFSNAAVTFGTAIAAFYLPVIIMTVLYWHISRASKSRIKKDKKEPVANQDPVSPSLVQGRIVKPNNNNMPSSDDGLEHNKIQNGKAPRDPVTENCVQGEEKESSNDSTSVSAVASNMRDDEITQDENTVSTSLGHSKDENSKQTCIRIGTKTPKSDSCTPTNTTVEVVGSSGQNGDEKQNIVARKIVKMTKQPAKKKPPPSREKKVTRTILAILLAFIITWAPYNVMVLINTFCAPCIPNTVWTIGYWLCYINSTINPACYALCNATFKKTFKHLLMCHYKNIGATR

[5] = biological target: Serine/threonine-protein kinase DCLK2 (Homo sapiens) (UniProt Q8N568); details: Compound concentration 1000.0 nM
[6] = biological target: High affinity nerve growth factor receptor (Homo sapiens) (UniProt P04629); details: Compound concentration 1000.0 nM
Chain of High affinity nerve growth factor receptor (Homo sapiens) (P04629 33-796 limits assumed): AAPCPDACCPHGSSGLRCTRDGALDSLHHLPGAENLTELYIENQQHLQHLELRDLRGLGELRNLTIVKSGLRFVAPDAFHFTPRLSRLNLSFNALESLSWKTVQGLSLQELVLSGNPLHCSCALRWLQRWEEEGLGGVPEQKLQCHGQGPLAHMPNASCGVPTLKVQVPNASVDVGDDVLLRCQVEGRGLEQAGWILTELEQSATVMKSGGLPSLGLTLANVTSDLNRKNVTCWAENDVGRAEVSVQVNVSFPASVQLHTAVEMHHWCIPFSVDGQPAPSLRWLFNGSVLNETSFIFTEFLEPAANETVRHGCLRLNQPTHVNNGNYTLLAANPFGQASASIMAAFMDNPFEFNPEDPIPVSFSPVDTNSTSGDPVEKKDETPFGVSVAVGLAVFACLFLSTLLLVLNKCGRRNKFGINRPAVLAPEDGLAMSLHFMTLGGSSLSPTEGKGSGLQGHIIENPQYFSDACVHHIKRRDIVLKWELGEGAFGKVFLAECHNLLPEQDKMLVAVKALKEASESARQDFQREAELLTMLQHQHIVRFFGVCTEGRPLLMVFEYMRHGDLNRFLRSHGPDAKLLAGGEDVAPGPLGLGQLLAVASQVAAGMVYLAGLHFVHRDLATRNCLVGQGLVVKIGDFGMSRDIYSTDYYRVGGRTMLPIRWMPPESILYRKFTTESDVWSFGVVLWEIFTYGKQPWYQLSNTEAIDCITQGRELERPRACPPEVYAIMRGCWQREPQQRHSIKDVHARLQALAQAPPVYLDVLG

[7] = tested on: Epidermal growth factor receptor (Homo sapiens), P00533 [UNDEFINED MUTATION]; details: Compound concentration 1000.0 nM
[8] = biological target: Beta-adrenergic receptor kinase 1 (Homo sapiens) (UniProt P25098); details: Compound concentration 1000.0 nM
Chain of Beta-adrenergic receptor kinase 1 (Homo sapiens) (P25098 whole entry): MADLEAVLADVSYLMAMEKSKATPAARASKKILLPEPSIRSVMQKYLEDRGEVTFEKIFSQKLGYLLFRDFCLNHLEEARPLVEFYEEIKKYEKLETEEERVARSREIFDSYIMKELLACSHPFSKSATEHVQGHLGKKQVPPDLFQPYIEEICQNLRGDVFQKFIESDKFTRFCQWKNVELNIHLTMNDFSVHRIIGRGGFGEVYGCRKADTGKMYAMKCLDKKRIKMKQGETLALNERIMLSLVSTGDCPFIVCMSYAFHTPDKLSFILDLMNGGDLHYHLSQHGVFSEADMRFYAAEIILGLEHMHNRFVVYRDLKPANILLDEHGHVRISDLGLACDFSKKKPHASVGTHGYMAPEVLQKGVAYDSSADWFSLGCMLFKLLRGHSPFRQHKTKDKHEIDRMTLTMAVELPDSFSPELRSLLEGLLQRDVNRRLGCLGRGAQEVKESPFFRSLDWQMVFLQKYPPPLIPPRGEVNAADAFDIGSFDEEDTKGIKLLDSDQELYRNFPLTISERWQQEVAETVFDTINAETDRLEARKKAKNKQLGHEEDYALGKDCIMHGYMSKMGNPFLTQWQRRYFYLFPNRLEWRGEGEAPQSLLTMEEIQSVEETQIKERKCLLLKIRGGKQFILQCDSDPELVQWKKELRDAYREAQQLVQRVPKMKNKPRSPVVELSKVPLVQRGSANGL

[9] = biological target: Calcium-dependent protein kinase 1 (Plasmodium falciparum) (UniProt P62344); details: Compound concentration 1000.0 nM
Chain of Calcium-dependent protein kinase 1 (Plasmodium falciparum) (P62344 2-524 limits assumed): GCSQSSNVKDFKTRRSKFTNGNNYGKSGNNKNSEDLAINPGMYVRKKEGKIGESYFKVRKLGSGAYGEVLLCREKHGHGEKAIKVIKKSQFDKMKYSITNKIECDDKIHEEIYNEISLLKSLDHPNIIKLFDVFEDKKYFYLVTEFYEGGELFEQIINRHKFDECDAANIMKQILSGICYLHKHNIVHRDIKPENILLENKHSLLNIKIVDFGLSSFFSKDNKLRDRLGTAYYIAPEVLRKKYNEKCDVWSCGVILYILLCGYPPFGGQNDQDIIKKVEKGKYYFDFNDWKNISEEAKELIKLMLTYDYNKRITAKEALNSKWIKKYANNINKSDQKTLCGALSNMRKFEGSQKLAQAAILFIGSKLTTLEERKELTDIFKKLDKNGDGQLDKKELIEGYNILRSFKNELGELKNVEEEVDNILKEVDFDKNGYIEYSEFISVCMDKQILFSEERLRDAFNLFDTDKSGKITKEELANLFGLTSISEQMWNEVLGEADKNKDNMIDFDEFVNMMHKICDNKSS

[10] = biological target: Receptor tyrosine-protein kinase erbB-2 (Homo sapiens) (UniProt P04626); details: Compound concentration 1000.0 nM
[11] = tested on: eIF-2-alpha kinase GCN2 (Homo sapiens), Q9P2K8 [S808G]; details: Compound concentration 1000.0 nM
[12] = biological target: Serine/threonine-protein kinase Nek3 (Homo sapiens) (UniProt P51956); details: Compound concentration 1000.0 nM
Chain of Serine/threonine-protein kinase Nek3 (Homo sapiens) (P51956 whole entry): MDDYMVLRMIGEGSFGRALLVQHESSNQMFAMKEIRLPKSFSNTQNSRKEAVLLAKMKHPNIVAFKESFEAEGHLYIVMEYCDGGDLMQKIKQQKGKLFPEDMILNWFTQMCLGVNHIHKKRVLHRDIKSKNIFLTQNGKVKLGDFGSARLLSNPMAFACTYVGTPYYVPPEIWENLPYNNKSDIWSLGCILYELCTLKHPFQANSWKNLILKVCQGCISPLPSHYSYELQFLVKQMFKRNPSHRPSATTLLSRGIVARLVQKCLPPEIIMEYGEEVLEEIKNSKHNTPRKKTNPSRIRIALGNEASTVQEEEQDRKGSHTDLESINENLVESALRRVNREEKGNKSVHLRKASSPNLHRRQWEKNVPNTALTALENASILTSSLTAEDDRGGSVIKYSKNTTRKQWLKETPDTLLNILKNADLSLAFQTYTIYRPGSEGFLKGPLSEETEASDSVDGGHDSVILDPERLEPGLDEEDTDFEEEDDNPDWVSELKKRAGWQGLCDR

[13] = biological target: T2, Muscarinic acetylcholine receptor M4 (Homo sapiens) (UniProt P08173); experiment: M4 (h) CEREP ligand profiling; details: filed as antagonist, Compound concentration 10.0 uM
T2 sequence (whole entry): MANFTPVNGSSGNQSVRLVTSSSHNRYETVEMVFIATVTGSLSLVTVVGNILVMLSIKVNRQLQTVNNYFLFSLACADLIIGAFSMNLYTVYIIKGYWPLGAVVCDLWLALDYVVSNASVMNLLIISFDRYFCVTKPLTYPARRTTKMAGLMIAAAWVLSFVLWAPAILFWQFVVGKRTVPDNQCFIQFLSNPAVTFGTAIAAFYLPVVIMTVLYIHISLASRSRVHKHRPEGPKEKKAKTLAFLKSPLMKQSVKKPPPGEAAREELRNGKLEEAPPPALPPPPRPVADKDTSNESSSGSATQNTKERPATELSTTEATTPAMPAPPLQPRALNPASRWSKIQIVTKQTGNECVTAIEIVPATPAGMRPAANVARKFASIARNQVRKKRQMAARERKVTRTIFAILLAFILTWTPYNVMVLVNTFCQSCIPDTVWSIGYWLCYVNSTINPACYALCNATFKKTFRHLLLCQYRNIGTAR

[14] = biological target: Histamine H1 receptor (Homo sapiens) (UniProt P35367); experiment: H1 (h) CEREP ligand profiling; details: filed as antagonist, Compound concentration 10.0 uM
Chain of Histamine H1 receptor (Homo sapiens) (P35367 whole entry, canonical isoform): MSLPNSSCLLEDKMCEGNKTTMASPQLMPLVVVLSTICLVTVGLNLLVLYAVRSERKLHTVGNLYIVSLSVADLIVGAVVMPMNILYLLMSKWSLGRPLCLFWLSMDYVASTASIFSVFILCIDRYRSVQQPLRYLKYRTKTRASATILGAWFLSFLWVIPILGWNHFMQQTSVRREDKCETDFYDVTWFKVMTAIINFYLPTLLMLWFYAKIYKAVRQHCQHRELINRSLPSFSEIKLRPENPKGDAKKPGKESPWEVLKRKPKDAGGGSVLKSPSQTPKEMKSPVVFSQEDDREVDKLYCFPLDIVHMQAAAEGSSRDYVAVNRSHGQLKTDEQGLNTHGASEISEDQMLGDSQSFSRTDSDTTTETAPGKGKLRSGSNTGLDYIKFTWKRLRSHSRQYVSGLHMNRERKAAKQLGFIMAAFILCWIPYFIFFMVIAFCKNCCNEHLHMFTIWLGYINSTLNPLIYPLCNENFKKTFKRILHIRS

[15] = tested on: Phosphatidylinositol 4,5-bisphosphate 3-kinase catalytic subunit alpha isoform (Homo sapiens), P42336 [E545A]; details: Compound concentration 1000.0 nM
[16] = biological target: Tyrosine-protein kinase HCK (Homo sapiens) (UniProt P08631); details: Compound concentration 1000.0 nM
[17] = biological target: Homeodomain-interacting protein kinase 3 (Homo sapiens) (UniProt Q9H422); details: Compound concentration 1000.0 nM
Chain of Homeodomain-interacting protein kinase 3 (Homo sapiens) (Q9H422 whole entry, looked up): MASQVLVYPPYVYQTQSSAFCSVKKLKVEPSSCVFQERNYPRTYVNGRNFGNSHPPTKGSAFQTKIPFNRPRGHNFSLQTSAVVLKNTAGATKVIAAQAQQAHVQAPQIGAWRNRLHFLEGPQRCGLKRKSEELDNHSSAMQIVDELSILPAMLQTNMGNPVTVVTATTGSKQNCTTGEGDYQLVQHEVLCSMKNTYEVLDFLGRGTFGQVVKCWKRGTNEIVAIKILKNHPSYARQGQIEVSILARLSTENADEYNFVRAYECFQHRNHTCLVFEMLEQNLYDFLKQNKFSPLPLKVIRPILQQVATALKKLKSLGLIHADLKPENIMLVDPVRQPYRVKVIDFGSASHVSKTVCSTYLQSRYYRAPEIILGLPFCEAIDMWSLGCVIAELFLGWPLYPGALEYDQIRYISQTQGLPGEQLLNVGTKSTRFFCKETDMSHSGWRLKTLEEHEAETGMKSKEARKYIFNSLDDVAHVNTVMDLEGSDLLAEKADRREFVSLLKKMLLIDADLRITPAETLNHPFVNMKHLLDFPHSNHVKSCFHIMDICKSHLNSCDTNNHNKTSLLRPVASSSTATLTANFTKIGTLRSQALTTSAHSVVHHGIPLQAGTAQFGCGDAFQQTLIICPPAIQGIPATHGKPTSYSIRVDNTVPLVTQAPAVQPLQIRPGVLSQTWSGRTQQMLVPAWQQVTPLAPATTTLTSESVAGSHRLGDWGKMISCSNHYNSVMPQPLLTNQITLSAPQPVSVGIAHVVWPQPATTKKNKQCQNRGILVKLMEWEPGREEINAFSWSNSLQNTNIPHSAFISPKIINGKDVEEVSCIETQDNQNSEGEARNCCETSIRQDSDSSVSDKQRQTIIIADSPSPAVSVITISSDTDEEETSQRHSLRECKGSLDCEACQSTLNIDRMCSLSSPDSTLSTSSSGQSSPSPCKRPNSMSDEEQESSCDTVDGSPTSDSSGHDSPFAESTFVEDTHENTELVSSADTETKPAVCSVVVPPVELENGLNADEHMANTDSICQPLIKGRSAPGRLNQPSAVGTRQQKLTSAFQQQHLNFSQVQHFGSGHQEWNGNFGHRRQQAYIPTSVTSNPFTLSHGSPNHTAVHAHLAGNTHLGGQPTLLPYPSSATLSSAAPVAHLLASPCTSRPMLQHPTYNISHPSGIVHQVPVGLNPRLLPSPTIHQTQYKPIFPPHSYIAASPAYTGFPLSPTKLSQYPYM

[18] = biological target: Non-receptor tyrosine-protein kinase TYK2 (Homo sapiens) (UniProt P29597); details: Compound concentration 1000.0 nM
[19] = biological target: Mitogen-activated protein kinase kinase kinase kinase 3 (Homo sapiens) (UniProt Q8IVH8); details: Compound concentration 1000.0 nM
[20] = biological target: Sigma intracellular receptor 2 (Homo sapiens, UniProt Q5BJF2); details: Compound concentration 10.0 uM
Chain of Sigma intracellular receptor 2 (Q5BJF2 whole entry): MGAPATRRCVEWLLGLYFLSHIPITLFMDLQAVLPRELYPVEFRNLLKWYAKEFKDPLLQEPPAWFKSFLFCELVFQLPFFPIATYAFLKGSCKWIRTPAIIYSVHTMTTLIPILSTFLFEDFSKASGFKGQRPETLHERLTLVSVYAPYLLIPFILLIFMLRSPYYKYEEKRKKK

[21] = biological target: Type-1 angiotensin II receptor (Homo sapiens) (UniProt P30556); experiment: AT1 (h) CEREP ligand profiling; details: filed as antagonist, Compound concentration 10.0 uM
Chain of Type-1 angiotensin II receptor (Homo sapiens) (P30556 whole entry): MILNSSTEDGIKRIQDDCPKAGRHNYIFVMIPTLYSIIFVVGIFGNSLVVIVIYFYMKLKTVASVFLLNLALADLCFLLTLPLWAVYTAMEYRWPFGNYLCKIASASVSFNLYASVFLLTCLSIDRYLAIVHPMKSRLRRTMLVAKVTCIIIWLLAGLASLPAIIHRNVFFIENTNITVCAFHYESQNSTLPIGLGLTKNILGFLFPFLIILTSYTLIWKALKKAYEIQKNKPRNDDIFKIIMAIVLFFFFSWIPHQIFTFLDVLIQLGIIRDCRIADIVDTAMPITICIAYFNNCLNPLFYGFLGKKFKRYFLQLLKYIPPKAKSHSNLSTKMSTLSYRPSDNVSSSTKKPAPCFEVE

[22] = biological target: Mitogen-activated protein kinase 15 (Homo sapiens) (UniProt Q8TD08); details: Compound concentration 1000.0 nM
[23] = biological target: D(1B) dopamine receptor (Homo sapiens) (UniProt P21918); details: Compound concentration 10.0 uM
[24] = tested on: Tyrosine-protein kinase ABL1 (Homo sapiens), P00519 [F317L]; details: Compound concentration 1000.0 nM
[25] = biological target: Mitogen-activated protein kinase kinase kinase 3 (Homo sapiens) (UniProt Q99759); details: Compound concentration 1000.0 nM
[26] = biological target: T3, 5-hydroxytryptamine receptor 2C (Homo sapiens) (UniProt P28335); details: Compound concentration 10.0 uM
T3 sequence (whole entry): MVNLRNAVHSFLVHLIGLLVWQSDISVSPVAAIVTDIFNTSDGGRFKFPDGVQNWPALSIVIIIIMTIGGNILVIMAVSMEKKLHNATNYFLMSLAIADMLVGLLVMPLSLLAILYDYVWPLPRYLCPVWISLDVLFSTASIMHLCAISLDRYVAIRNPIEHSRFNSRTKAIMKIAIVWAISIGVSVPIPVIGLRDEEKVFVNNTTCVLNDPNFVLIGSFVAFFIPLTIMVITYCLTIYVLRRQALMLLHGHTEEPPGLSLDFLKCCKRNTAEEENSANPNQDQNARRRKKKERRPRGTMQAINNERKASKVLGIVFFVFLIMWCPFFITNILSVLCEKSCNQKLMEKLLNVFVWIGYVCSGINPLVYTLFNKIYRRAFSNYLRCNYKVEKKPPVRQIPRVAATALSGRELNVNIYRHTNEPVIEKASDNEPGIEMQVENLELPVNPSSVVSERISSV

SMILES	residual activity [1]	residual activity [2]	residual activity [3]	inhibition [4]	residual activity [5]	residual activity [6]	residual activity [7]	residual activity [8]	residual activity [9]	residual activity [10]	residual activity [11]	residual activity [12]	inhibition [13]	inhibition [14]	residual activity [15]	residual activity [16]	residual activity [17]	residual activity [18]	residual activity [19]	inhibition [20]	also measured
CNC(=O)Nc1ccc2c(c1)CC[C@@]21OC(=O)N(CC(=O)N(Cc2ccc(F)cc2)[C@@H](C)C(F)(F)F)C1=O [A-485]	77%	79%	60%	-5%	70%	81%	63%	74%	83%	100%	92%	58%	14%	22%	91%	99%	73%	86%	76%	50%	inhibition [21]: 18%; residual activity [22]: 74%; inhibition [23]: 21.1%; residual activity [24]: 77%; residual activity [25]: 86%; inhibition [26]: 16.5%
CNC(=O)Nc1ccc2c(c1)[C@@]1(CC2)OC(=O)N(CC(=O)N(Cc2ccc(F)cc2)[C@@H](C)C(F)(F)F)C1=O [A-486]	81%	81%	59%	-8%	89%	41%	100%	76%	93%	98%	100%	69%	6%	7%	97%	100%	90%	68%	89%	55.5%	inhibition [21]: 17%; residual activity [22]: 93%; inhibition [23]: 20.5%; residual activity [24]: 78%; residual activity [25]: 75%; inhibition [26]: -3.43%
